In ChEMBL document CHEMBL5604064, “ASAP - DENV-1 NS2B-NS3 protease fluorescence dose response” (2024):
Values joined by “and” are separate entries in the source; they are usually repeats but may differ in a detail not shown here. Equal values may be shown once.

Biological target: T1, NS3 protease (dengue virus type 1, UniProt A0A0K0TQ28)
T1 sequence (A0A0K0TQ28 whole entry): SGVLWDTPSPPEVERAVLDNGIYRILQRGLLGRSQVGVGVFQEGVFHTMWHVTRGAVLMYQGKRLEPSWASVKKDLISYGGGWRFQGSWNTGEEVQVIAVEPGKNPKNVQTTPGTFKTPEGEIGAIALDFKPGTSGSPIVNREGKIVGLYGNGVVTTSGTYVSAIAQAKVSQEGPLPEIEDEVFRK
Assay: Functional biochemical assay to identify treatments for viral infectious disease that targets Dengue virus type 1 NS2B-NS3 protease. Utilizing a direct enzyme activity measurement method, reading the fluorescence intensity is used to characterize the relative potency of inhibitors as IC50.
Set-up: species or system Nauru/West Pac/1974

SMILES	IC50
N=C(N)NCCC[C@H](NC(=O)c1nccs1)C(=O)N[C@@H](CCCCN)C(=O)N[C@@H](C(N)=O)c1ccc(OCc2ccc(C(F)(F)F)cc2)cc1	920 nM and 1.03 µM (2×) and 1 µM and 926 nM and 1.69 µM and 865 nM
N=C(N)NCCC[C@H](NC(=O)[C@H](Cc1ccc(CN)cc1)NC(=O)c1ccccc1)B(O)O	0.31 µM and 0.315 µM
COCCNC(=O)[C@H](Nc1ccc2c(c1)CNC2)c1cc(Cl)cc(C2CC2)c1	> 99.5 µM
O=C(NCC(F)F)[C@H](Nc1ccc2c(c1)CNC2)c1cc(Cl)cc(C2CC2)c1	> 99.5 µM
O=C(Nc1ccc2c(c1)CNCC2)c1cc(Cl)cc2[nH]ncc12	> 99.5 µM
CC(C)(C)c1cc(Br)cc(C(=O)Nc2ccc3c(c2)CNC3)c1	> 99.5 µM
Clc1ccc2[nH]cc(Cc3ccc(-c4nn[nH]n4)cc3)c2c1	62.9 µM
CN1Cc2ccc(NC(=O)c3cc(Cl)cc4[nH]ncc34)cc2C1	> 99.5 µM
O=C(Nc1ccc2c(c1)CNC2)c1cccc(-c2cnco2)c1	20.3 µM
CC(C)NC(=O)[C@H](Nc1ccc2c(c1)CNC2)c1cc(Cl)cc2[nH]ncc12	34.4 µM
Cn1cc2cc(Cl)cc(C(=O)Nc3ccc4c(c3)CNC4)c2n1	> 99.5 µM
O=C(Nc1ccc2c(c1)CNC2)c1cc(Br)cc2ccccc12	83.7 µM
O=C(Nc1ccc2c(c1)CNC2)c1cc(Cl)cc2c1CCC2	> 99.5 µM
CNC(=O)[C@H](Nc1ccc2c(c1)CNC2)c1cc(Cl)cc(C2CC2)c1	> 99.5 µM
O=C1Cc2c(cccc2C(=O)Nc2ccc3c(c2)CNC3)N1	11.3 µM
O=C(Nc1ccc2c(c1)CNC2)c1cc(Br)cc2[nH]c(-c3ccccc3)nc12	1.24 µM
N#C[C@H](Nc1ccc2c(c1)CNC2)c1cc(Cl)cc(C2CC2)c1	> 99.5 µM
O=C(Nc1cc(Cl)cc([C@H]2CN(Cc3ccccc3)C[C@@H]2c2cccc(-c3nn[nH]n3)c2)c1)OCc1ccccc1	6.63 µM
Clc1cc(CNc2ccc3c(c2)CNC3)c2cn[nH]c2c1	30.9 µM
CC(C)c1cc(Br)cc(C(=O)Nc2ccc3c(c2)CNC3)c1	> 99.5 µM
O=C(NC1CCOCC1)[C@H](Nc1ccc2c(c1)CNC2)c1cc(Cl)cc(C2CC2)c1	> 99.5 µM
Cn1cc(CNC(=O)[C@H](Nc2ccc3c(c2)CNC3)c2cc(Cl)cc(C3CC3)c2)cn1	> 99.5 µM
O=C(Nc1cc(Cl)cc(C(=O)Nc2ccc3c(c2)CNC3)c1)OCc1ccccc1	> 99.5 µM
Cn1cc(CCc2nc3c(C(=O)Nc4ccc5c(c4)CNC5)cc(Cl)cc3[nH]2)cn1	21.6 µM
O=C(Nc1ccc2c(c1)CNC2)c1cc(F)cc2[nH]ncc12	68.2 µM

SMILES	IC50
Cc1c(C(=O)Nc2cc([C@H]3CCOC3)ccn2)cc(C2CC2)n1C	> 99.5 µM
O=C(Nc1ccc2c(c1)CNC2)c1cc(Cl)cc2ccncc12	> 99.5 µM
O=C1Cc2c(cc(Br)cc2C(=O)Nc2ccc3c(c2)CNC3)N1	84.6 µM
CC(C)NC(=O)[C@H](Nc1ccc2c(c1)CNC2)c1cc(Cl)cc2[nH]c(-c3ccccc3)nc12	7.46 µM and 2.06 µM
O=C(Nc1cc(Cl)cc([C@H](C#CCO)Nc2cccc(-c3nn[nH]n3)c2)c1)OCc1ccccc1	12.7 µM
NCCc1csc2cc(C(=O)Nc3cc([C@H]4CCOC4)ccn3)ccc12	> 99.5 µM
O=C(Nc1ccc2c(c1)CNC2)c1cccc2[nH]c(C(F)(F)F)cc12	> 99.5 µM
O=C(Nc1ccc2c(c1)CNC2)c1cc(Cl)cc2cn[nH]c12	> 99.5 µM
N#Cc1cccc(-c2nc3c(C(=O)Nc4ccc5c(c4)CNC5)cc(F)cc3[nH]2)c1	2.41 µM
NCc1cccc([C@H]2C[C@@H]2c2cc(Cl)cc(NC(=O)OCc3ccccc3)c2)c1	25.3 µM
C=CC[C@H]1NCc2cc(NC(=O)c3cccc4c3CC(=O)N4)ccc21	> 99.5 µM
N#C[C@H](Nc1cccc(-c2nn[nH]n2)c1)c1cc(Cl)cc(NC(=O)OCc2ccccc2)c1	10 µM
O=C(Nc1ccc2c(c1)CNC2)c1cc(Cl)cc2[nH]ncc12	69.2 µM
O=C(Nc1ccc2c(c1)CNC2)c1ccc2[nH]cc(C3CCNCC3)c2c1	31.2 µM
O=C(Nc1ccc2c(c1)CNC2)c1cc(Br)cc2[nH]c(=O)[nH]c12	32.7 µM
N#C[C@H](Nc1ccc2c(c1)CNC2)c1cc(Cl)cc2[nH]ncc12	> 99.5 µM
O=C(Nc1cc(Cl)cc(C(=O)Nc2cccc([C@H]3C[C@H]3C(=O)O)c2)c1)OCc1ccccc1	25.2 µM
Clc1cc([C@@H]2C[C@H]2c2cccc(C3CCNCC3)c2)c2cn[nH]c2c1	5.94 µM
Cc1c(C(=O)Nc2cc(-c3cccnc3)ccn2)cc(C2CC2)n1C	4.83 µM
O=C(NCC(F)F)[C@H](Nc1ccc2c(c1)CNC2)c1cc(F)cc2[nH]ccc12	> 99.5 µM
CC(C)c1nnc(-c2nc3c(C(=O)Nc4ccc5c(c4)CNC5)cc(F)cc3[nH]2)s1	21.8 µM
C=CC[C@H]1NCc2cc(NC(=O)c3cc(Cl)cc4[nH]ncc34)ccc21	> 99.5 µM
Cc1nc2c(C(=O)Nc3ccc4c(c3)CNC4)cc(Cl)cc2[nH]1	> 99.5 µM
O=C(Nc1cc(Cl)cc(-c2ccc3[nH]c(C(=O)O)cc3c2)c1)OCc1ccccc1	5.82 µM
O=C(NCCC1CC1)[C@H](Nc1ccc2c(c1)CNC2)c1cc(Cl)cc(C2CC2)c1	> 99.5 µM

SMILES	IC50
NCc1cccc(-c2csc3cc(C(=O)Nc4ccc5c(c4)CNC5)ccc23)c1	29.9 µM
N#Cc1cc2c(cc1NC(=O)c1cc(F)cc3[nH]ncc13)CNC2	59.7 µM
O=C(Nc1ccc2c(c1)CNC2)c1cc(Cl)cc2cc[nH]c12	> 99.5 µM
C=CC[C@H]1NCc2cc(NC(=O)c3cc(F)cc4[nH]ncc34)ccc21	> 99.5 µM
Cc1ccccc1-c1nc2c(C(=O)Nc3ccc4c(c3)CNC4)cc(F)cc2[nH]1	2.19 µM
O=C(Nc1cc(Br)c2c(c1)CNC2)c1cc(F)cc2[nH]ncc12	75.5 µM
C=CC[C@H](Nc1cc(Cl)cc(NC(=O)OCc2ccccc2)c1)c1cccc(-c2nn[nH]n2)c1	6.41 µM
CNC(=O)[C@H](Nc1cc(CN)cc(C(=O)O)c1)c1cc(Cl)cc(C2CC2)c1	> 99.5 µM
O=C(NCC(F)F)[C@H](Nc1ccc2c(c1)CNC2)c1cc(F)cc2[nH]ncc12	> 99.5 µM
O=C1Cc2c(cc(F)cc2C(=O)Nc2ccc3c(c2)CNC3)N1	36.2 µM
O=C(Nc1cc(Cl)cc([C@H]2C[C@@H]2c2cccc(C3CCNCC3)c2)c1)OCc1ccccc1	6.28 µM
O=C(Nc1ccc2c(c1)CNC2)c1ccc2c(C3=CCNCC3)csc2c1	56.3 µM
CC(C)CNC(=O)c1cc(Cl)ccc1NS(=O)(=O)c1ccc(Oc2ccccc2Cl)cc1	14.4 µM
C=CC[C@H]1NCc2cc(N[C@H](C(=O)NC(C)C)c3cc(Cl)cc4[nH]ncc34)ccc21	81.8 µM
O=C(Nc1ccc2c(c1)CNC2)c1cc(F)cc2[nH]c(-c3ccccc3F)nc12	3.86 µM
O=C(NC1CCOCC1)[C@H](Nc1ccc2c(c1)CNC2)c1cc(Cl)cc2[nH]ncc12	> 99.5 µM
CNC(=O)[C@H](Nc1cc(Cl)cc(NC(=O)OCc2ccccc2)c1)c1cccc(-c2nn[nH]n2)c1	46.5 µM
O=C(Nc1ccc2c(c1)CNC2)c1cc(F)c2[nH]ccc2c1	> 99.5 µM
N[C@H]1CC[C@H](c2ccc(NC(=O)c3cc(Cl)cc(NC(=O)OCc4ccccc4)c3)cc2)C1	8.49 µM
Cn1c(=O)[nH]c2c(C(=O)Nc3ccc4c(c3)CNC4)cc(Br)cc21	> 99.5 µM
OCC#C[C@H](Nc1ccc2c(c1)CNC2)c1cc(Cl)cc2[nH]ncc12	19.4 µM
O=C(Nc1ccc2c(c1)CNC2)c1cc(F)cc2c1CCC2	> 99.5 µM
NCc1cccc(NC(=O)c2cc(Cl)cc(NC(=O)OCc3ccccc3)c2)c1	51.1 µM
c1cc(C2CCN(Cc3c[nH]c4ccccc34)CC2)c2ccncc2c1	> 99.5 µM
Cc1cccc(-c2nc3c(C(=O)Nc4ccc5c(c4)CNC5)cc(Cl)cc3[nH]2)c1O	4.26 µM

SMILES	IC50
O=C(Nc1ccc2c(c1)CNC2)c1cccc2[nH]c(=O)[nH]c12	65.5 µM
O=C(Nc1ccc2c(c1)CNC2)c1cc(Cl)cc(C(F)(F)F)n1	7.25 µM
O=C(Nc1ccc2c(c1)CNC2)c1cc(F)cc2[nH]c(-c3ccc(F)cc3)nc12	2.8 µM
CCc1cc(C(=O)Nc2cccc(-n3nn[nH]c3=O)c2)sc1-c1ccc(Cl)cc1	11.4 µM
Cc1c(C(=O)Nc2cc(CCCN)ccn2)cc(C2CC2)n1C	25.5 µM
O=C(Nc1ccc2c(c1)CNC2)c1cccc2nc(O)ccc12	> 99.5 µM
NCc1ccc([C@H]2C[C@@H]2c2cc(Cl)cc(NC(=O)OCc3ccccc3)c2)cc1	8.89 µM
COc1cc(-c2cc(NC(=O)c3cc(F)cc4[nH]ncc34)cc3c2CNC3)ccn1	82.8 µM
CCOCCNC(=O)[C@H](Nc1ccc2c(c1)CNC2)c1cc(Cl)cc2[nH]ncc12	> 99.5 µM
O=C(Nc1cc(Cl)cc(C(=O)Nc2ccc3c(c2)CCNC3)c1)OCc1ccccc1	47.7 µM
CC(C)(c1nc2c(C(=O)Nc3ccc4c(c3)CNC4)cc(F)cc2[nH]1)S(C)(=O)=O	16.1 µM
O=C1Cc2cc(C(=O)Nc3ccc4c(c3)CNC4)ccc2N1	5.26 µM and 4.47 µM
NCCc1csc2cc(C(=O)Nc3ccc4c(c3)CNC4)ccc12	> 99.5 µM
Cc1ccc(NC(=O)c2cc(Cl)cc(NC(=O)OCc3ccccc3)c2)cc1CN	> 99.5 µM
O=C(Nc1ccc2c(c1)CNC2)c1cc(F)cc2[nH]c(-c3ccccc3)nc12	3.67 µM
O=C(Nc1ccc2c(c1)CNC2)c1cc(Cl)cc2nn(-c3ccccc3)nc12	2.69 µM
Cc1[nH]c2ccccc2c1CN1CCC(c2c[nH]c3ncccc23)CC1	> 99.5 µM
O=C(Nc1ccc2c(c1)CNC2)c1cccc2cn[nH]c12	49.9 µM
O=C(Nc1cc2c(cc1Br)CNC2)c1cc(F)cc2[nH]ncc12	> 99.5 µM
O=C(Nc1ccc2c(c1)CNC2)c1ccc2[nH]ccc2c1	> 99.5 µM
O=C(Nc1cc2c(c(C3=CCS(=O)(=O)CC3)c1)CNC2)c1cc(F)cc2[nH]ncc12	> 99.5 µM
CNC(=O)[C@H](Nc1cc(CN)cc(-c2nn[nH]n2)c1)c1cc(Cl)cc(C2CC2)c1	> 99.5 µM
O=C(Nc1cc2c(c(C3=CCOCC3)c1)CNC2)c1cc(F)cc2[nH]ncc12	39.9 µM
O=C(Nc1cc(Cl)cc(C(=O)Nc2cccc(-n3nn[nH]c3=O)c2)c1)OCc1ccccc1	11.6 µM
